Results published in the supplement of paper PMC10307832.

How the values were obtained:
Test in all cases: relative viability (nuclei count vs DMSO), 5 days (fraction); higher = more cells survive
Trametinib + Dasatinib = compound: CC(=O)Nc1cccc(-n2c(=O)n(C3CC3)c(=O)c3c(Nc4ccc(I)cc4F)n(C)c(=O)c(C)c32)c1 [Trametinib] + Cc1nc(Nc2ncc(C(=O)Nc3c(C)cccc3Cl)s2)cc(N2CCN(CCO)CC2)n1 [Dasatinib] (partner 0.075 µM)
Summary of the method: (§1)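 Lung cancer cell lines in 1536-well plates were dosed by pin tool the day after seeding, either with one drug alone or with a fixed anchor-drug dose plus five library-drug doses (not always all listed) in √10 steps. After 5 days, cells were fixed and their nuclei stained in one step (final 0.05% Triton X-100, 1% formaldehyde, 1 ug/ml Hoechst), then counted on 4× images. Relative viability is the nuclei count in treated wells divided by that in vehicle wells. Values are medians of duplicate plates.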

Trametinib + Palbociclib = compound: CC(=O)Nc1cccc(-n2c(=O)n(C3CC3)c(=O)c3c(Nc4ccc(I)cc4F)n(C)c(=O)c(C)c32)c1 [Trametinib] + CC(=O)c1c(C)c2cnc(Nc3ccc(N4CCNCC4)cn3)nc2n(C2CCCC2)c1=O [Palbociclib] (partner 0.5 µM)
Summary of the method: as §1

Trametinib + Alpelisib = compound: CC(=O)Nc1cccc(-n2c(=O)n(C3CC3)c(=O)c3c(Nc4ccc(I)cc4F)n(C)c(=O)c(C)c32)c1 [Trametinib] + Cc1nc(NC(=O)N2CCC[C@H]2C(N)=O)sc1-c1ccnc(C(C)(C)C(F)(F)F)c1 [Alpelisib] (partner 2 µM)
Summary of the method: as §1

[1] = compound: CN1C=C(C2=CC=CC=C21)/C=C\3/C4=C(C=CC=N4)NC3=O + O=C(CCCCCCC(=O)Nc1ccccc1)NO [Vorinostat] (partner 1 µM)
Summary of the method: as §1

Cell Line	relative viability (Trametinib + Dasatinib; first compound 0.0025 µM)	relative viability (Trametinib + Dasatinib; first compound 0.007906 µM)	relative viability (Trametinib + Dasatinib; first compound 0.025 µM)	relative viability (Trametinib + Dasatinib; first compound 0.07906 µM)	relative viability (Trametinib + Dasatinib; first compound 0.25 µM)	relative viability (Trametinib + Palbociclib; first compound 0.0025 µM)	relative viability (Trametinib + Palbociclib; first compound 0.007906 µM)	relative viability (Trametinib + Palbociclib; first compound 0.025 µM)	relative viability (Trametinib + Palbociclib; first compound 0.07906 µM)	relative viability (Trametinib + Palbociclib; first compound 0.25 µM)	relative viability (Trametinib + Alpelisib; first compound 0.0025 µM)	relative viability (Trametinib + Alpelisib; first compound 0.007906 µM)	relative viability (Trametinib + Alpelisib; first compound 0.025 µM)	relative viability (Trametinib + Alpelisib; first compound 0.07906 µM)	relative viability (Trametinib + Alpelisib; first compound 0.25 µM)	relative viability ([1]; first compound 0.02 µM)	relative viability ([1]; first compound 0.06325 µM)	relative viability ([1]; first compound 0.6325 µM)	relative viability ([1]; first compound 2 µM)	relative viability ([1]; first compound 0.2 µM)
HOP-62	0.681	0.43	0.249	0.206	0.212	0.505	0.444	0.397	0.231	0.158	0.813	0.984	0.525	0.377	0.166	0.565	0.543	0.576	0.547	–
LC-2-ad	0.484	0.485	0.502	0.313	0.301	0.5	0.452	0.461	0.381	0.404	0.864	0.452	0.662	0.408	0.233	0.67	0.661	0.706	0.669	0.666
SW 900	0.559	0.652	0.46	0.57	0.238	0.56	0.49	0.483	0.457	0.383	–	–	–	–	–	0.588	–	0.352	0.463	–
NCI-H322M	0.239	0.239	0.247	0.266	0.284	0.448	0.428	0.404	0.43	0.431	0.78	0.59	0.555	0.455	0.316	0.855	0.821	0.904	0.828	0.712
SK-LU-1	0.192	0.183	0.148	0.15	0.159	0.416	0.319	0.307	0.296	0.259	0.966	0.841	0.7	0.361	0.226	0.67	0.764	0.727	0.831	0.729
NCI-H1734	0.54	0.592	0.399	0.56	0.387	0.337	0.353	–	0.292	0.241	0.627	0.712	–	0.631	0.444	0.73	0.712	0.796	0.747	–
HCC-44	–	–	–	–	–	0.974	1.01	1.08	1.03	1.02	0.774	0.618	0.614	0.528	0.187	1.03	1.09	1.12	1.02	1.1
NCI-H1703	–	–	–	–	–	–	–	–	–	–	0.367	0.373	0.28	0.306	0.29	–	–	–	–	–
NCI-H2170	0.56	0.476	0.37	0.347	0.416	0.4	0.419	–	0.399	0.342	0.828	0.721	–	0.669	0.638	0.746	0.762	0.614	0.758	0.747
NCI-H1650	0.337	0.368	0.344	0.298	0.16	0.34	0.38	0.34	0.357	0.158	–	–	–	–	–	0.548	0.532	0.549	0.554	0.566
IA-LM	–	–	–	–	–	–	–	–	–	–	0.656	0.393	0.129	0.104	0.109	1.07	1.2	–	0.927	1.04
EBC-1	–	–	–	–	–	–	–	–	–	–	0.901	0.65	0.313	0.21	0.206	–	–	–	–	–
NCI-H1792	0.694	0.515	0.652	0.549	0.396	0.6	0.51	0.49	0.382	0.303	0.644	0.53	0.537	0.382	0.255	–	–	–	–	–
A549	–	–	–	–	–	–	–	–	–	–	0.6	0.37	0.206	0.158	0.0675	–	–	–	–	–
ChaGo-K-1	0.586	0.605	0.567	0.475	0.48	0.926	0.778	0.912	0.852	0.75	–	–	–	–	–	0.71	0.772	0.759	0.769	0.627
NCI-H2342	0.298	0.28	–	0.3	0.303	0.48	0.511	0.425	0.446	0.477	–	–	–	–	–	0.661	0.787	0.613	0.684	0.788
NCI-H1648	–	–	–	–	–	0.251	0.284	0.278	0.336	0.303	–	–	–	–	–	0.557	0.391	0.327	0.64	0.425
NCI-H1563	0.466	0.509	0.467	0.438	0.464	–	–	–	–	–	0.94	0.985	0.992	0.968	0.628	–	–	–	–	–
NCI-H522	0.892	0.913	0.665	0.724	0.671	1.01	0.936	0.693	0.859	0.668	–	–	–	–	–	0.734	0.893	0.899	0.953	0.84
NCI-H1623	0.487	0.449	0.306	0.378	0.618	–	–	–	–	–	–	–	–	–	–	–	–	–	–	–
NCI-H596	0.533	0.535	0.495	0.487	0.303	–	–	–	–	–	0.34	0.422	0.311	0.371	0.342	0.642	0.653	0.589	0.595	0.484
NCI-H1299	–	–	–	–	–	–	–	–	–	–	1.04	1.08	0.911	0.799	0.744	–	–	–	–	–
Calu-6	–	–	–	–	–	–	–	–	–	–	0.974	0.414	0.231	0.156	0.16	–	–	–	–	–
